Laboratory results reported in patent US11178874B2, “Articles comprising antioxidizing agents and bacteriostatic agents, and production processes thereof” (BENVIC SAS, priority 2016, dated 2021).

Test system: microorganisms usually present in the environment
Assay: Counting of microorganisms on a growth plate after incubation (bacteriostatic effect of solutions)
Type: cell-based
Conditions: for cfu/plate: control 597 cfu; for Reduction % observed: vs control 597 cfu
Description: The counting of microorganisms was carried out on a growth plate, after the incubation period (as regards the type of microorganisms, they are microorganisms usually present in the environment). […] Then, the bacteriostatic effect was evaluated of:
a solution of selenium phloroglucinol (20 ppm of selenium, i.e. corresponding to 0.002% by weight);
three solutions of zinc PCA, with a concentration of zinc of 10 ppm, 20 ppm and 30 ppm respectively (i.e. respectively corresponding to 0.001%, 0.002% and 0.003% by weight).
In order to evaluate the synergic effect between zinc and antioxidizing agent, the tests indicated above were repeated, using three solutions separately, respectively containing: selenium 20 ppm+zinc 10 ppm; selenium 20 ppm+zinc 20 ppm; selenium 20 ppm+zinc 30 ppm.

O=C1CC[C@@H](C(=O)[O-])N1.O=C1CC[C@@H](C(=O)[O-])N1.[Zn+2] [Zinc] showed a cfu/plate (solution 10 ppm) of 571 cfu/plate, a Reduction % observed (solution 10 ppm) of 5.1% and a cfu/plate (solution 20 ppm) of 550 cfu/plate. It also gave a Reduction % observed (solution 20 ppm) of 6.0%, a cfu/plate (solution 30 ppm) of 491 cfu/plate and a Reduction % observed (solution 30 ppm) of 17.1%.
